This test has as its target EGFR T790M/L858R Ba/F3 cell line (Homo sapiens, UniProt P00533, T790M/L858R, cells depend on it). Briefly: Ba/F3 cell proliferation (MTS assay), EGFR T790M/L858R. In kind it is cell-based, murine. On the procedure:
The EGFR mutant L858R, Del E746_A750, L858R/T790M, DelE746_A750/T790M, L858R/T790M/C797S and Del/T790M/C797S Ba/F3 cells were previously described (Zhou et al., Nature 462, (2009), 1070-1074). All cell lines were maintained in RPMI 1640 (Cellgro; Mediatech Inc., Herndon, Calif.) supplemented with 10% FBS 100 units/mL penicillin, 100 units/mL streptomycin, and 2 mM glutamine. L858R cells were maintained in ACL-4 media (Invitrogen, Carlsbad, Calif.) supplemented with 5% FBS, 100 units/mL penicillin, 100 units/mL streptomycin, and 2 mM glutamine. The EGFR I941R mutation was introduced via site directed mutagenesis using the Quick Change Site-Directed Mutagenesis kit (Stratagene; La Jolla, Calif.) according to the manufacturer's instructions. All constructs were confirmed by DNA sequencing. The constructs were shuttled into the retroviral vector JP1540 using the BD Creator™ System (BD Biosciences). Ba/F3 cells were infected with retrovirus and according to standard protocols, as described previously (Zhou 2009). Stable clones were obtained by selection in puromycin (2 μg/ml).
Growth and inhibition of growth was assessed by MTS assay and was performed according to previously established methods (Zhou 2009). The MTS assay is a colorimetric method for determining the number of viable cells that is based on the bioreduction of MTS by cells to a formazan product that is soluble in cell culture medium and can be detected spectrophotometrically. […] All experimental points were set up in six wells and all experiments were repeated at least three times. […] The curves were fitted using a non-linear regression model with a sigmoidal dose response.

The mark [1] stands for this setting: absence of cetuximab, read-out: Ba/F3 cellular activity (EC50) T790M/L858R.
Setting [2] is: read-out: Ba/F3 cellular activity (EC50) T790M/L858R + Cetuximab, presence of 1 μg/mL cetuximab.

Each structure is given as a SMILES string. Read-outs that look alike come from different tables or passages of the source. Some results are limits rather than exact numbers.

Our source for the EC50 values is patent US20210085688A1, “PHARMACEUTICAL COMBINATIONS OF EGFR INHIBITORS AND METHODS OF USE THEREOF” (DANA-FARBER CANCER INSTITUTE, INC., priority 2018, published 2021).

EGFR T790M/L858R Ba/F3 cell line, sequence (P00533 whole entry T790M/L858R): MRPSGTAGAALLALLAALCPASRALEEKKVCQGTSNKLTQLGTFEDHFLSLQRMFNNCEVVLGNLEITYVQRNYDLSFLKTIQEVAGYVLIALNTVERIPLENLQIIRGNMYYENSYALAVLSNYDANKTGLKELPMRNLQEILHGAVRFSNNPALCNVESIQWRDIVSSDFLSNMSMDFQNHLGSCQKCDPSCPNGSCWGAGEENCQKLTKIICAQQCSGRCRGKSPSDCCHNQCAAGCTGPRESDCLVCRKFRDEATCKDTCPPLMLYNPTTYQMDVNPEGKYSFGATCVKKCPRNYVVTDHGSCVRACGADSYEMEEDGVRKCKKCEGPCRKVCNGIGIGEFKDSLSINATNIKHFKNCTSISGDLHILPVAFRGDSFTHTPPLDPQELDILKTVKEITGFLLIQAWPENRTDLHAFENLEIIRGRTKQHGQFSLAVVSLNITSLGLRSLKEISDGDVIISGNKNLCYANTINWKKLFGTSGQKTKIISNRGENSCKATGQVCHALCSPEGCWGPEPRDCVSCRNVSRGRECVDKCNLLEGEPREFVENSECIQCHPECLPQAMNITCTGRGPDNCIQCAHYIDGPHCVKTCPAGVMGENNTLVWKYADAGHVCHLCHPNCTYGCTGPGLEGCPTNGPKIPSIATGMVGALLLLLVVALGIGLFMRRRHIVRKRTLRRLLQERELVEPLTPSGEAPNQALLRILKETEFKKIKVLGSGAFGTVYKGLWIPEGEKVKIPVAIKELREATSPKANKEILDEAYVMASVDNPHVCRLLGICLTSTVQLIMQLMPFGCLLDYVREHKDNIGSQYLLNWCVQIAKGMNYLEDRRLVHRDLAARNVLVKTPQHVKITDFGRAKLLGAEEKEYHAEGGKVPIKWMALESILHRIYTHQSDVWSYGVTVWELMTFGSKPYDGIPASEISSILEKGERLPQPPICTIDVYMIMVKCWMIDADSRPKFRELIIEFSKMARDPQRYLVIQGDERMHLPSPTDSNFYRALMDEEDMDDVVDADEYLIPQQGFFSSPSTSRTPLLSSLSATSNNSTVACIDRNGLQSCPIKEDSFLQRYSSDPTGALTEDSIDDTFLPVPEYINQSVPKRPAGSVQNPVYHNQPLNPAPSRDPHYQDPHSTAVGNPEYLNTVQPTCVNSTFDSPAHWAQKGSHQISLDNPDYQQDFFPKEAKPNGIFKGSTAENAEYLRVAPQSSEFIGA

As for `C=CC(=O)Nc1ccc2c(c1)N(Cc1ccccc1)C(=O)c1cc(-c3ccc4[nH]ccc4c3)ccc1N2` [Compound I-1], the EC50 is no less than 750 nM under setting [1] and 500 to 750 nM under setting [2].
The matching figures for `O=C(CCl)Nc1ccc2c(c1)N(Cc1ccccc1)C(=O)c1cc(-c3ccc4[nH]ccc4c3)ccc1N2` [Compound I-2]: less than 250 nM and less than 250 nM.
The corresponding values for `C=CC(=O)Nc1ccc2c(c1)N(Cc1ccccc1)C(=O)c1cc(-c3ccc(N4CCNCC4)cc3)ccc1N2` [Compound I-3, N-(10-Benzyl-11-oxo-2-(4-(piperazin-1-yl)phenyl)-10,11-dihydro-5H-dibenzo[b,e][1,4]diazepin-8-yl)acrylamide] are no less than 750 nM and no less than 750 nM.
In the case of `O=C1c2cc(Br)ccc2Nc2ccc(F)cc2N1Cc1ccccc1` [I-a, 10-Benzyl-2-bromo-8-fluoro-5,10-dihydro-11H-dibenzo[b,e][1,4]diazepin-11-one], the EC50 by setting is: under setting [1], no less than 750 nM; under setting [2], 250 to 500 nM.
